Reference: patent US20120029068A1, “TRANSDERMAL FLUID” (MALAYSIAN PALM OIL BROARD A/K/A MPOB, priority 2007, published 2012)
Read-outs that look alike come from different tables or passages of the source.

Legend:
MCF-7 = settings: absence and presence of estradiol and tamoxifen; cited from earlier work
[1] = rats fed 50 mg of α-T3 or α-T, α-T3 vs α-T; cited from earlier work
[2] = tested on: human breast cancer cells; settings: cited from earlier work; for anti-proliferative and pro-apoptotic effects / inhibition of breast cancer cell growth: human breast cancer cells
ZR-75-1 cells = settings: absence and presence of estradiol and tamoxifen; cited from earlier work
MCF-7 cells = settings: α-T combined with tamoxifen; cited from earlier work
MDA-MB-231 cells = settings: cited from earlier work
prostate cancer cell = settings: comparison between homologues; cited from earlier work
IFN-γ = IFN-γ ELISA on splenocytes of mice immunized with OVA; assay type: in vivo, BALB/c mice; settings: transdermal δ-T3 vs control
Protocol: (§1) The mice were further immunized subcutaneously with ovalbumin (50 μg) adjuvanted in alum. Interferon-gamma (IFN-γ) was measured upon antigen specific stimulation of OVA.
The experimental mice were sacrificed using ether. Spleen was removed aseptically into RPMI complete medium and single cell suspension was made by teasing out the splenocytes from the spleen capsule. Before culture, cells were stained with 0.4% Trypan Blue Stain (GIBCO, Invitrogen Corp, New Zealand) and cell viability count was performed using a haemocytometer. The spleen cell suspension was diluted to give a 5×10^6 cells/ml solution and Concanavalin A (Sigma-Aldrich Inc, St Louis Mo., USA) was added at a final concentration of 25 μg/ml. 200 μl of this suspension was plated on to 96-well flat-bottomed tissue culture plates (Becton Dickinson, USA) and left in a humidified CO2 incubator at 37° C. for 72 hours. At the end of each incubation period, the plate was removed from the incubator and stored at −70° C. The plates were thawed prior to performing ELISA.
The tissue culture plates that were frozen at […] were thawed. […] The supernatant was analysed by ELISA to quantify the amount of IFN-γ and IL-4 produced following the in vitro stimulation with Concanavalin A. ELISA was performed using ELISA kits for mouse IFN-γ and IL-4 (BD, Pharmingen) as recommended by the manufacturers.

B-lymphocytes = assay: Single colour flow cytometry with leukocyte marker antibodies, B-lymphocytes; assay type: in vivo, BALB/c mice; settings: whole blood, δ-tocotrienol group compared to control
Protocol: as §1
(§2) Fluorescein isothiocyanate (FITC) or Phycoerythrin-labeled antibodies were diluted by adding 20 μl of antibody to 50 μl of Staining Buffer in separate tubes. 100 μl of whole blood from mouse was added to each tube and mixed gently. The samples were then incubated for one hour at room temperature in the dark. After incubation, 2 ml of RBC Lysis Buffer was added into each tube and mixed gently. Samples were then centrifuged at 400 g for 5 minutes at room temperature. A wash step was carried out by adding 2 ml of Staining Buffer and samples were again centrifuged at 400 g for 5 minutes at room temperature. Supernatant was removed and 200 μl Staining Buffer was added into each tube followed by 204 μl of 4% Formalin. Samples were analysed using Flow Cytometer.

Splenocytes = assay: MTT viability assay of splenocytes; assay type: cell-based, BALB/c mice; settings: splenocytes of treated mice, addition of concanavalin A or OVA
Protocol: Viability of the cells was measured by the MTT assay. In this assay MTT is converted to a blue formazan product by dehydrogenases that are active in living cells. Splenocytes were seeded with concanavalin A or OVA in a 96 well plate in a total volume of 200 μl of medium. MTT (25 μl of 5 mg/ml) was added to each well. After 4 hours, 100 μl of extraction buffer consisting of 20% SDS dissolved in a 50% dimethyl formamide/50% water solution at pH 4.0 was added. The blue colour formed was measured at 590 nm.
The MTT assay uses the principle whereby cell growth or cell death is indicated by the conversion or lack of conversion of the tetrazolium salt to the coloured product, formazan, the concentration of which can be measured spectrophotometrically.

[3] = tested on: natural killer cells (NK); assay: Single colour flow cytometry with leukocyte marker antibodies, NK cells; assay type: in vivo, BALB/c mice; settings: whole blood, δ-tocotrienol group compared to control
Protocol: as §1, §2

[4] = mouse, in vivo
Protocol: BALB/c mice were divided into 2 groups. Control group only received ethanol the carrier whilst the experimental group was treated with 1 mg of δ-tocotrienols daily for 4 weeks. It was applied on the back to examine subcutaneous absorption.
Female BALB/c mice 3 to 4 weeks old were obtained from the Animal Breeding Unit, Institute for Medical Research (IMR), Kuala Lumpur, Malaysia. […] The control animals were treated with ethanol alone whilst the experimental groups were applied daily with 0.5 ml of a 20 mg/ml concentration to deliver 1 mg of δ-tocotrienol.
The tocopherols and tocotrienols were analysed by HPLC. The system used was a Shimadzu LC-10AT HPLC coupled with a Shimadzu Model RF-10AXL fluorescence spectrophotometer, Shimadzu Class VP data acquisition software, and silica column (YMC A-012/150×6 mm I.D, 5 μm). The eluting solvent was hexane/isopropyl alcohol (99.5/0.5 v/v) at a flow rate of 2.0 ml/min. The detector was set at excitation wavelength of 295 nm and emission wavelength of 325 nm. 500 mg adipose tissue was homogenized with 4:1:1 mixture of hexane:ethanol and 0.9% sodium chloride at 10000 rpm for 5 minutes. The homogenate was then centrifuged at 2000 rpm for 5 minutes. The resulting supernatant was filtered and evaporated using a rotary evaporator. A known amount of lipid sample was dissolved in a 10 ml volumetric flask using the eluting solvent and 10 μl of the solution was injected into the HPLC system. A standard solution of a mixture of α, γ, and δ-tocotrienols was also injected accordingly. Quantification of the major components of vitamin E was carried out by comparing the peak areas of the components with those of the standards.

CC(C)=CCC/C(C)=C/CC/C(C)=C/CC[C@]1(C)CCc2c(C)c(O)c(C)c(C)c2O1 [α-T3, α-tocotrienol]
proliferation of MCF-7 (MCF-7): inhibited proliferation | concentration in adipose tissue and skin [1]: significantly higher | anti-proliferative and pro-apoptotic effects / inhibition of breast cancer cell growth [2]: potent anti-proliferative and pro-apoptotic effects | proliferation of ZR-75-1 cells (ZR-75-1 cells): inhibited proliferation

Cc1c(C)c2c(c(C)c1O)CC[C@@](C)(CCC[C@H](C)CCC[C@H](C)CCCC(C)C)O2 [α-T, α-tocopherol]
increase of the IC50 for tamoxifen (MCF-7 cells): more than 1000 fold | effect on growth inhibitory effects of tamoxifen (MDA-MB-231 cells): completely blocked | anti-proliferative and pro-apoptotic effects / inhibition of breast cancer cell growth [2]: no effect

CC(C)=CCC/C(C)=C/CC/C(C)=C/CC[C@]1(C)CCc2cc(O)c(C)c(C)c2O1 [γ-T3, γ-tocotrienol]
effect on prostate cancer cell growth (prostate cancer cell): greater anti-proliferative effects than γ-T | proliferation of MCF-7 (MCF-7): inhibited proliferation | anti-proliferative and pro-apoptotic effects / inhibition of breast cancer cell growth [2]: potent anti-proliferative and pro-apoptotic effects | proliferation of ZR-75-1 cells (ZR-75-1 cells): inhibited proliferation

Cc1c(O)cc2c(c1C)O[C@](C)(CCC[C@H](C)CCC[C@H](C)CCCC(C)C)CC2 [γ-T, γ-tocopherol, reference compound]
effect on prostate cancer cell growth (prostate cancer cell): much stronger inhibitory effect

CC(C)=CCC/C(C)=C/CC/C(C)=C/CC[C@]1(C)CCc2cc(O)cc(C)c2O1 [δ-T3, δ-tocotrienol]
proliferation of MCF-7 (MCF-7): inhibited proliferation | IFN-γ in splenocytes (IFN-γ): significantly higher | IFN-γ in splenocytes (IFN-γ; listed as δ-tocotrienols): significant increase | B-lymphocytes (B-lymphocytes): significantly increased | B-lymphocytes (B-lymphocytes; listed as δ-tocotrienols): increase | splenocyte growth (MTT OD reading) (Splenocytes): grew normally | synergistic efficacy with Tamoxifen ([2]; breast cancer): highest synergistic efficacy | anti-proliferative and pro-apoptotic effects / inhibition of breast cancer cell growth [2]: potent anti-proliferative and pro-apoptotic effects | anti-proliferative and pro-apoptotic effects / inhibition of breast cancer cell growth ([2]; listed as δ-tocotrienol): most effective inhibitor | natural killer cells [3]: significantly increased | natural killer cells ([3]; listed as δ-tocotrienols): increase | proliferation of ZR-75-1 cells (ZR-75-1 cells): inhibited proliferation | changes in tocotrienol levels in blood, spleen and liver [4]: only seen at week 4 | concentration in adipose and subcutaneous fat tissue at week 3 [4]: drop in concentration | time of optimum concentration in breast and abdominal adipose and subcutaneous fat tissue [4]: 2 week | δ-T3 in breast and abdominal adipose and subcutaneous fat tissue [4]: significant increases
